Experimental data from patent publication US20230057568A1, “COMPOUNDS FOR TREATING FAMILIAL DYSAUTONOMIA” (PTC THERAPEUTICS, INC., priority 2019, published 2023).

System: Elongator complex protein 1 (ELP1, also referred to as IKBKAP)
Test: IKBKAP-HTRF Assay
Type: cell-based, human
Details: FD patient-derived fibroblasts GM04589, 48 hours incubation; for EC2x for IKBKAP protein expression (concentration producing two times the amount of IKBKAP protein vs DMSO vehicle control): 7-point concentration curve; for MFI (maximum fold increase in IKBKAP protein abundance relative to the vehicle control): HTRF
Method: The assay is used for the quantitative determination of Elongator complex protein 1 (ELP1, also referred to as IKBKAP) concentration in cell lysates using the HTRF® (Homogeneous Time-Resolved Fluorescence) technology. IKBKAP is detected in a sandwich HTRF assay by use of an anti-IKAP antibody labeled with a donor and an anti-IKAP antibody labeled with an acceptor.
Cells were thawed and incubated in DMEM-10% FBS for 72 hours. Cells were trypsinized, counted, and re-suspended to a concentration of 50,000 cells/mL in DMEM-10% FBS. A 199 μL, aliquot of the cell suspensions were plated at 10,000 cells per well in a 96 well microtiter plate and incubated for 3 to 5 hours. […] Test compounds were serially diluted 3.16-fold in 100% DMSO to generate a 7-point concentration curve. A 1 μL aliquot of 200× compound solution was transferred to cell-containing wells, and cells were incubated for 48 hours in a cell culture incubator (37° C., 5% CO2, 100% relative humidity). Triplicate samples were set up for each compound concentration. After 48 hours, the supernatant was removed from the cells and 50 μL of the 1× LB4 lysis buffer, containing protease inhibitors, was added to the cells and incubated with shaking at room temperature for 1 hour. A 36 μL aliquot of this lysate was subsequently transferred to the 384-well plate containing 4 μL of the antibody solution (1:50 dilution of anti IKAP d2 and anti-IKAP K(9+8) in detection buffer). The 384-well plate was then centrifuged for 1 minute to bring the solutions to the bottom of the plate and incubated overnight at 4° C. Fluorescence for each well of the plate at 665 nm and 620 nm was measured was on the EnVision plate reader (Perkin Elmer). The AF for each sample is calculated by: […]
wherein Signal is the normalized fluorescence for each sample well and Blank is the average normalized average fluorescence for the Blank control wells.
The maximum fold increase (MFI) in IKBKAP protein abundance for compounds of Formula (I) or a form thereof relative to the vehicle control are provided in Table 1. MFI was calculated by dividing the AF value for each sample well by the sample AF for the vehicle control wells.
The EC2× for IKBKAP protein expression obtained from the 7-point concentration curve generated for each test compound according to the protocol in Biological Example 1 are also provided in Table 1. The term “EC2× for IKBKAP protein expression” is defined as the concentration of test compound that is effective in producing two times the amount of IKBKAP protein in a FD patient cell compared to the amount produced from the DMSO vehicle control.

Row | Compound | EC2x for IKBKAP protein expression (concentration producing two times the amount of IKBKAP protein vs DMSO vehicle control) | MFI (maximum fold increase in IKBKAP protein abundance relative to the vehicle control)
1 | Cc1c(C[C@H](C)N)sc2c(NCc3ccccc3)nc(Cl)nc12 [Cpd 34, 6-[(2S)-2-aminopropyl]-N-benzyl-2-chloro-7-methylthieno[3,2-d]pyrimidin-4-amine] | ***** (<0.005 μM) | ***** (>4.9)
2 | Cc1c(C[C@H](C)N)sc2c(NCc3nccs3)nc(Cl)nc12 [Cpd 29, 6-[(2S)-2-aminopropyl]-2-chloro-7-methyl-N-[(1,3-thiazol-2-yl)methyl]thieno[3,2-d]pyrimidin-4-amine] | ***** (<0.005 μM) | ***** (>4.9)
3 | CC[C@H](C)[C@H](N)Cc1cc2nc(Cl)nc(NCc3ccco3)c2s1 [Cpd 6, 6-[(2R,3S)-2-amino-3-methylpentyl]-2-chloro-N-[(furan-2-yl)methyl]thieno[3,2-d]pyrimidin-4-amine] | *** (between >0.02 μM and ≤0.5 μM) | *** (between >2.9 and <3.9)
4 | C[C@H](N)Cc1sc2c(NCc3cccs3)nc(Cl)nc2c1C1CC1 [Cpd 86, 6-[(2S)-2-aminopropyl]-2-chloro-7-cyclopropyl-N-[(thiophen-2-yl)methyl]thieno[3,2-d]pyrimidin-4-amine] | **** (between >0.005 μM and ≤0.02 μM) | **** (between >3.9 and <4.9)
5 | C[C@H](N)Cc1sc2c(NCc3cccs3)nc(Cl)nc2c1Br [Cpd 82, 6-[(2S)-2-aminopropyl]-7-bromo-2-chloro-N-[(thiophen-2-yl)methyl]thieno[3,2-d]pyrimidin-4-amine] | ***** (<0.005 μM) | ***** (>4.9)
6 | CC[C@@H](N)c1sc2c(NCc3ccco3)nc(Cl)nc2c1C [Cpd 49, 6-[(1R)-1-aminopropyl]-2-chloro-N-[(furan-2-yl)methyl]-7-methylthieno[3,2-d]pyrimidin-4-amine] | * (EC2×>1 μM) | * (MFI<1.9)
7 | Cc1c(C[C@H](C)N)sc2c(NCc3ccncc3F)nc(Cl)nc12 [Cpd 35, 6-[(2S)-2-aminopropyl]-2-chloro-N-[(3-fluoropyridin-4-yl)methyl]-7-methylthieno[3,2-d]pyrimidin-4-amine] | ***** (<0.005 μM) | ***** (>4.9)
8 | CCc1c(C[C@H](C)N)sc2c(NCc3ccco3)nc(Cl)nc12 [Cpd 77, 6-[(2S)-2-aminopropyl]-2-chloro-7-ethyl-N-[(furan-2-yl)methyl]thieno[3,2-d]pyrimidin-4-amine] | **** (between >0.005 μM and ≤0.02 μM) | ***** (>4.9)
9 | Cc1c([C@@H](C)N)sc2c(NCc3ccco3)nc(Cl)nc12 [Cpd 94, 6-[(1R)-1-aminoethyl]-2-chloro-N-[(furan-2-yl)methyl]-7-methylthieno[3,2-d]pyrimidin-4-amine] | * (EC2×>1 μM) | * (MFI<1.9)
10 | CC(C)(C)[C@H](N)Cc1cc2nc(Cl)nc(NCc3ccco3)c2s1 [Cpd 7, 6-[(2R)-2-amino-3,3-dimethylbutyl]-2-chloro-N-[(furan-2-yl)methyl]thieno[3,2-d]pyrimidin-4-amine] | ** (between >0.5 μL and ≤1 μM) | * (MFI<1.9)
11 | Cc1c(C[C@@H](N)CO)sc2c(NCc3ccco3)nc(Cl)nc12 [Cpd 19, (2R)-2-Amino-3-(2-chloro-4-{[(furan-2-yl)methyl]amino}-7-methylthieno[3,2-d]pyrimidin-6-yl)propan-1-ol] | ***** (<0.005 μM) | ***** (>4.9)
12 | C[C@H](N)Cc1sc2c(NCc3ccco3)nc(Cl)nc2c1C1CC1 [Cpd 36, 6-[(2S)-2-aminopropyl]-2-chloro-7-cyclopropyl-N-[(furan-2-yl)methyl]thieno[3,2-d]pyrimidin-4-amine] | **** (between >0.005 μM and ≤0.02 μM) | ***** (>4.9)
13 | Cc1c(C[C@H](C)N)sc2c(NCc3ccco3)nc(C(F)(F)F)nc12 [Cpd 26, 6-[(2S)-2-aminopropyl]-N-[(furan-2-yl)methyl]-7-methyl-2-(trifluoromethyl)thieno[3,2-d]pyrimidin-4-amine] | *** (between >0.02 μM and ≤0.5 μM) | **** (between >3.9 and <4.9)
14 | C[C@H](N)Cc1cc2ncnc(NCc3ccncc3)c2s1 [Cpd 11, 6-[(2S)-2-aminopropyl]-N-[(pyridin-4-yl)methyl]thieno[3,2-d]pyrimidin-4-amine] | *** (between >0.02 μM and ≤0.5 μM) | **** (between >3.9 and <4.9)
15 | Cc1c(C[C@H](C)CN)sc2c(NCc3ccco3)nc(Cl)nc12 [Cpd 70, 6-[(2S)-3-amino-2-methylpropyl]-2-chloro-N-[(furan-2-yl)methyl]-7-methylthieno[3,2-d]pyrimidin-4-amine] | *** (between >0.02 μM and ≤0.5 μM) | **** (between >3.9 and <4.9)
16 | Cc1c(C[C@H](C)NC2CCC2)sc2c(NCc3ccco3)nc(Cl)nc12 [Cpd 78, 2-chloro-6-[(2S)-2-(cyclobutylamino)propyl]-N-[(furan-2-yl)methyl]-7-methylthieno[3,2-d]pyrimidin-4-amine] | *** (between >0.02 μM and ≤0.5 μM) | *** (between >2.9 and <3.9)
17 | Cc1c(C[C@@H](C)CO)sc2c(NCc3ccco3)nc(Cl)nc12 [Cpd 71, (2R)-3-(2-chloro-4-{[(furan-2-yl)methyl]amino}-7-methylthieno[3,2-d]pyrimidin-6-yl)-2-methylpropan-1-ol] | * (EC2×>1 μM) | * (MFI<1.9)
18 | CC[C@H](N)Cc1cc2nc(Cl)nc(NCc3cccs3)c2s1 [Cpd 10, 6-[(2S)-2-aminobutyl]-2-chloro-N-[(thiophen-2-yl)methyl]thieno[3,2-d]pyrimidin-4-amine] | *** (between >0.02 μM and ≤0.5 μM) | **** (between >3.9 and <4.9)
19 | Cc1c(C[C@H](C)N)sc2c(NCc3cnccn3)nc(Cl)nc12 [Cpd 32, 6-[(2S)-2-aminopropyl]-2-chloro-7-methyl-N-[(pyrazin-2-yl)methyl]thieno[3,2-d]pyrimidin-4-amine] | *** (between >0.02 μM and ≤0.5 μM) | **** (between >3.9 and <4.9)
20 | CC[C@H](N)Cc1sc2c(NCc3cccs3)nc(Cl)nc2c1C [Cpd 37, 6-[(2S)-2-aminobutyl]-2-chloro-7-methyl-N-[(thiophen-2-yl)methyl]thieno[3,2-d]pyrimidin-4-amine] | ***** (<0.005 μM) | ***** (>4.9)
21 | Cc1c(C[C@H](C)N)sc2c(NCc3ccccc3F)nc(Cl)nc12 [Cpd 44, 6-[(2S)-2-aminopropyl]-2-chloro-N-[(2-fluorophenyl)methyl]-7-methylthieno[3,2-d]pyrimidin-4-amine] | ***** (<0.005 μM) | ***** (>4.9)
